Experimental data taken from ChEMBL document CHEMBL1149084, “Synthesis and evaluation of 2-pyridyl pyrimidines with in vitro antiplasmodial and antileishmanial activity” (Bioorg Med Chem Lett, 2009).

Experiments:
[1] = tested on: L6; assay: Cytotoxicity against rat L6 cells; format: ADME, cell-based
[2] = tested on: Leishmania donovani; assay: Antileishmanial activity against Leishmania donovani; format: functional, organism-based
[3] = tested on: Plasmodium falciparum; assay: Antiplasmodial activity against chloroquine-resistant Plasmodium falciparum K1; format: functional, organism-based
[4] = Inhibition of GST-tagged Plasmodium falciparum MetAP 1B by […]
[5] = tested on: Plasmodium falciparum; assay: Antimalarial activity against chloroquine-resistant Plasmodium falciparum Dd2 after 24 hrs by [3H]hypoxanthine uptake; format: functional, organism-based
[6] = Selectivity ratio of IC50 for rat L6 cells to IC50 for Leishmania donovani

Cc1nc(-c2ccccn2)nc(NCCc2ccccc2Cl)c1Cl
IC50 [1]: 91.6 µM | IC50 [2]: 1.2 µM | IC50 [3]: 6.3 µM

Cc1nc(-c2ccccn2)nc(N(C)CCc2ccccc2)c1Cl
IC50 [1]: 62.5 µM | IC50 [2]: 0.32 µM | IC50 [3]: 3.5 µM

Cc1nc(-c2ccccn2)nc(NCCc2ccncc2)c1Cl
IC50 [1]: 110 µM | IC50 [2]: 14.1 µM | IC50 [3]: 9.5 µM

CCN(CC)CCCC(C)Nc1ccnc2cc(Cl)ccc12 (stereo unspecified) [CHLOROQUINE]
IC50 [1]: 70.1 µM

Cc1nc(-c2ccccn2)nc(NCCC2CCCCC2)c1Cl
IC50 [1]: 49.5 µM | IC50 [2]: 0.26 µM | IC50 [3]: 2.3 µM

Cc1cc(NCCc2ccccc2)nc(-c2ccccn2)n1
IC50 [1]: 18.3 µM | IC50 [2]: 3 µM | IC50 [3]: 3.7 µM

Cc1nc(-c2ccccn2)nc(N2CCC(Cc3ccccc3)C2)c1Cl (stereo unspecified)
IC50 [1]: 88 µM | IC50 [2]: 0.38 µM | IC50 [3]: 3.1 µM

COc1ccc(CCNc2nc(-c3ccccn3)nc(C)c2Cl)cc1
IC50 [1]: 8.7 µM | IC50 [2]: 0.43 µM | IC50 [3]: 2.5 µM

Cc1nc(-c2ccccn2)nc(NCCc2ccccc2)c1Cl
IC50 [1]: 25.5 µM | IC50 [2]: 0.5 µM | IC50 [4]: 0.11 µM | IC50 [3]: 9.8 µM | IC50 [5]: 3.1 µM

Cc1nc(-c2ccccn2)nc(N2CCCC2Cc2ccccc2)c1Cl (stereo unspecified)
IC50 [1]: 92.3 µM | IC50 [2]: 0.63 µM | IC50 [3]: 4.3 µM

Cc1nc(-c2ccccn2)nc(NCc2ccc(S(C)(=O)=O)cc2)c1Cl
IC50 [1]: 93.6 µM | IC50 [2]: 10.7 µM | IC50 [3]: 10.1 µM

C[C@@H]1CC[C@H]2[C@@H](C)C(=O)O[C@@H]3O[C@@]4(C)CC[C@@H]1[C@]32OO4 [ARTEMISININ]
IC50 [1]: > 170 µM | IC50 [3]: 0.005 µM

Cc1nc(-c2ccccn2)nc(N2CCC(c3ccccc3)C2)c1Cl (stereo unspecified)
IC50 [1]: 133 µM | IC50 [2]: 0.39 µM | IC50 [3]: 4.7 µM

CCCCCCCCCCCCCCCCOP(=O)([O-])OCC[N+](C)(C)C [MILTEFOSINE]
IC50 [2]: 0.7 µM

Cc1nc(-c2ccccn2)nc(NCCc2ccc(S(C)(=O)=O)cc2)c1Cl
IC50 [1]: 104 µM | IC50 [2]: 7.4 µM | IC50 [3]: 8.2 µM

Cc1nc(-c2ccccn2)nc(NCCCc2ccccc2)c1Cl
IC50 [1]: 73.5 µM | IC50 [2]: 0.48 µM | IC50 [3]: 1.9 µM

Cc1nc(-c2ccccn2)nc(NCC2CCCCC2)c1Cl
IC50 [1]: 42.4 µM | IC50 [2]: 0.31 µM | IC50 [3]: 2.4 µM

Cc1nc(-c2ccccn2)nc(N2CCN(CCO)CC2)c1Cl
IC50 [1]: 270 µM | IC50 [2]: 156 µM | IC50 [3]: 7.5 µM

Cc1nc(-c2ccccn2)nc(N2CCN(S(=O)(=O)c3ccccc3)CC2)c1Cl
IC50 [1]: 210 µM | IC50 [2]: 54.4 µM | IC50 [3]: 11.6 µM

Cc1nc(-c2ccccn2)nc(N)c1Cl
IC50 [1]: 85.3 µM | IC50 [2]: 3.3 µM | IC50 [3]: 20.8 µM | selectivity ratio [6]: > 10

Cc1nc(-c2ccccn2)nc(NCc2ccccc2)c1Cl
IC50 [1]: 70.1 µM | IC50 [2]: 0.47 µM | IC50 [3]: 3.2 µM

Cc1nc(-c2ccccn2)nc(NCCc2ccc(Cl)cc2)c1Cl
IC50 [1]: 40.4 µM | IC50 [2]: 0.45 µM | IC50 [3]: 2 µM

Cc1nc(-c2ccccn2)nc(NC2Cc3ccccc3C2)c1Cl
IC50 [1]: 33.2 µM | IC50 [2]: 0.42 µM | IC50 [3]: 3.7 µM

Cc1nc(-c2ccccn2)nc(N2CCC(c3ccccc3)CC2)c1Cl
IC50 [1]: 183 µM | IC50 [2]: 1.1 µM | IC50 [3]: 8.9 µM

Cc1nc(-c2ccccn2)nc(NCCS(=O)(=O)c2ccccc2)c1Cl
IC50 [1]: 72.8 µM | IC50 [2]: 11.4 µM | IC50 [3]: 10.4 µM

Cc1nc(-c2ccccn2)nc(NCC2CCOC2)c1Cl (stereo unspecified)
IC50 [1]: 125 µM | IC50 [2]: 10.5 µM | IC50 [3]: 15.3 µM

Cc1nc(-c2ccccn2)nc(NCCNc2cc(C(F)(F)F)ccn2)c1Cl
IC50 [1]: 5.2 µM | IC50 [2]: 0.28 µM | IC50 [3]: 2.74 µM

FC(F)(F)c1cc(NCCc2ccccc2)nc(-c2ccccn2)n1
IC50 [1]: 74.2 µM | IC50 [2]: 2 µM | IC50 [3]: 8.2 µM

CCN(CC)c1nc(-c2ccccn2)nc(C)c1Cl
IC50 [1]: 148 µM | IC50 [2]: 1.22 µM | IC50 [3]: 9 µM | selectivity ratio [6]: > 10

Cc1nc(-c2ccccn2)nc(N2CCCC2c2ccccc2)c1Cl (stereo unspecified)
IC50 [1]: 76.5 µM | IC50 [2]: 0.7 µM | IC50 [3]: 4.1 µM

Cc1nc(-c2ccccn2)nc(NCCc2cccc(Cl)c2)c1Cl
IC50 [1]: 32.6 µM | IC50 [2]: 0.44 µM | IC50 [3]: 2.5 µM

Cc1nc(-c2ccccn2)nc(N(C)C)c1Cl
IC50 [1]: 115 µM | IC50 [2]: 1.1 µM | IC50 [3]: 15.1 µM | selectivity ratio [6]: > 10
